Source: PubChem BioAssay (NCI)
Where “and” joins values, the source holds several entries; their conditions need not be identical. Identical values can stand only once.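 Interpolation was linear, between the two tested concentrations surrounding the appropriate level; five concentrations were tested over 48 hours in 96-well plates. GI50 marks 50% less growth. TGI denotes the concentration required for complete inhibition of growth.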

Assays:
Test in all cases: DTP human tumour cell line panel, 48 h
ACHN renal = tested on: ACHN renal
EKVX NSCLC = tested on: EKVX NSCLC
HCC-2998 colon = tested on: HCC-2998 colon
HL-60(TB) leukemia = tested on: HL-60(TB) leukemia
HOP-92 NSCLC = tested on: HOP-92 NSCLC
KM12 colon = tested on: KM12 colon
PC-3 prostate = tested on: PC-3 prostate
SNB-19 CNS = tested on: SNB-19 CNS
SNB-75 CNS = tested on: SNB-75 CNS
SW-620 colon = tested on: SW-620 colon

With COc1cccc(-c2c[nH]c3c(N/N=C/c4ccncc4)ncnc23)c1 the GI50 (ACHN renal) was 1.37 µM, the TGI (ACHN renal) was > 22.9 µM and the GI50 (EKVX NSCLC) was 7.06 µM. It also gave a TGI (EKVX NSCLC) of 24.1 µM, a GI50 (HCC-2998 colon) of 4.36 µM and a TGI (HCC-2998 colon) of 15.8 µM. The GI50 (HL-60(TB) leukemia) was 1.7 µM, the TGI (HL-60(TB) leukemia) was 7.35 µM and the GI50 (HOP-92 NSCLC) was 4.96 µM. It also gave a TGI (HOP-92 NSCLC) of 19.2 µM, a GI50 (KM12 colon) of 1.41 µM and a TGI (KM12 colon) of 4.9 µM. The GI50 (PC-3 prostate) was 4.53 µM, the TGI (PC-3 prostate) was > 25 µM and the GI50 (SNB-19 CNS) was 7.15 µM. The TGI (SNB-19 CNS) was > 25 µM, the GI50 (SNB-75 CNS) was 1.47 µM and the TGI (SNB-75 CNS) was 6.78 µM. The GI50 (SW-620 colon) was 1.5 µM and the TGI (SW-620 colon) was 5.39 µM.

In the case of C[C@H]1CC[C@@]2(NC1)O[C@H]1C[C@H]3[C@@H]4CC[C@H]5C[C@@H](O)CC[C@]5(C)[C@H]4CC[C@]3(C)[C@H]1[C@@H]2C, the GI50 (ACHN renal) is reported as 11.2 µM, the TGI (ACHN renal) is reported as 21.9 µM and > 100 µM and the TGI (EKVX NSCLC) is reported as > 100 µM. For the same compound, the GI50 (HCC-2998 colon) was 9.32 µM, the TGI (HCC-2998 colon) was 22 µM and > 100 µM and the GI50 (HL-60(TB) leukemia) was 42.5 µM. The TGI (HL-60(TB) leukemia) was 50 µM and > 100 µM, the TGI (HOP-92 NSCLC) was > 100 µM and the GI50 (KM12 colon) was 19 µM. For the same compound, the TGI (KM12 colon) was 50 µM and > 100 µM, the GI50 (PC-3 prostate) was 12.5 µM and the TGI (PC-3 prostate) was 42 µM and > 100 µM. The TGI (SNB-19 CNS) was 50 µM and > 100 µM, the GI50 (SNB-75 CNS) was 10.9 µM and the TGI (SNB-75 CNS) was 24.7 µM and > 100 µM. The GI50 (SW-620 colon) was 24.9 µM and the TGI (SW-620 colon) was 50 µM.

COc1cc(OC)c(C/C=C/c2ccccc2)cc1O gave a TGI (ACHN renal) of 72.3 µM, a TGI (EKVX NSCLC) of 33.6 µM and a TGI (HCC-2998 colon) of 29.8 µM. The TGI (HL-60(TB) leukemia) was 52.2 µM, the TGI (HOP-92 NSCLC) was 26.5 µM and the TGI (KM12 colon) was 31.5 µM. It also gave a TGI (PC-3 prostate) of 35.6 µM, a TGI (SNB-19 CNS) of 29.3 µM and a TGI (SNB-75 CNS) of 33.9 µM. It also gave a TGI (SW-620 colon) of 38 µM.

C=CCN=C(N/N=C/c1ccc([N+](=O)[O-])o1)NS(=O)(=O)c1cc(C(=O)Nc2ccc(Cl)cc2)c(Cl)cc1SC was tested, and the GI50 (ACHN renal) was 3.55 µM, the TGI (ACHN renal) was > 50.1 µM and the GI50 (EKVX NSCLC) was 2.63 µM. It also gave a TGI (EKVX NSCLC) of 6.58 µM, a GI50 (HCC-2998 colon) of 2.29 µM and a TGI (HCC-2998 colon) of 5.96 µM. The GI50 (HL-60(TB) leukemia) was 1.05 µM, the TGI (HL-60(TB) leukemia) was 8.09 µM and the GI50 (HOP-92 NSCLC) was 4.94 µM. For the same compound, the TGI (HOP-92 NSCLC) was > 100 µM, the GI50 (KM12 colon) was 6.89 µM and the TGI (KM12 colon) was > 100 µM. For the same compound, the GI50 (PC-3 prostate) was 2.13 µM, the TGI (PC-3 prostate) was > 100 µM and the GI50 (SNB-19 CNS) was > 100 µM. For the same compound, the TGI (SNB-19 CNS) was > 100 µM, the GI50 (SNB-75 CNS) was > 100 µM and the TGI (SNB-75 CNS) was > 100 µM. The GI50 (SW-620 colon) was 1.02 µM and the TGI (SW-620 colon) was > 100 µM.

In the case of O=c1cnn(C2OC(CO)C(O)C2O)c(=S)[nH]1 (configuration not stated), the TGI (ACHN renal) is reported as > 100 µM, the TGI (EKVX NSCLC) is reported as > 100 µM and the TGI (HCC-2998 colon) is reported as > 100 µM. For the same compound, the TGI (HL-60(TB) leukemia) was > 100 µM, the TGI (HOP-92 NSCLC) was > 100 µM and the TGI (KM12 colon) was > 100 µM. The TGI (PC-3 prostate) was > 100 µM, the TGI (SNB-19 CNS) was > 100 µM and the TGI (SNB-75 CNS) was > 100 µM. The TGI (SW-620 colon) was > 74.6 µM.

CN1CCN(C(=O)C(C)(C)c2ccc(C(=O)Nc3cn4cc(-c5ccncc5)ccc4n3)cc2)CC1 was tested, and the GI50 (ACHN renal) was 0.238 µM, the TGI (ACHN renal) was 1.48 µM and the GI50 (EKVX NSCLC) was 0.491 µM. For the same compound, the TGI (EKVX NSCLC) was > 100 µM, the GI50 (HCC-2998 colon) was 0.502 µM and the TGI (HCC-2998 colon) was 9.7 µM. It also gave a GI50 (HL-60(TB) leukemia) of 0.371 µM, a TGI (HL-60(TB) leukemia) of 3.55 µM and a GI50 (HOP-92 NSCLC) of 0.366 µM. For the same compound, the TGI (HOP-92 NSCLC) was 7.11 µM, the GI50 (KM12 colon) was 0.175 µM and the TGI (KM12 colon) was > 60.3 µM. For the same compound, the GI50 (PC-3 prostate) was 0.382 µM, the TGI (PC-3 prostate) was > 70.2 µM and the GI50 (SNB-19 CNS) was 0.239 µM. For the same compound, the TGI (SNB-19 CNS) was > 100 µM, the GI50 (SNB-75 CNS) was 0.167 µM and the TGI (SNB-75 CNS) was 1.57 µM. The GI50 (SW-620 colon) was 0.185 µM and the TGI (SW-620 colon) was > 56 µM.
